Assay: gradient 5% acetonitrile 3 min, to 50% in 2 min, to 85% in 15 min, held 3 min, 100 µL/min
Settings: column: Zorbax Extend-C18 2.1 x 50 mm; eluents: water / acetonitrile, 0.1% formic acid
Procedure, shortened: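 Mixtures of ~100 pure standards were chromatographed on a Zorbax Extend-C18 column (2.1 × 50 mm, 1.8 μm) at 100 μL/min using water and acetonitrile, each with 0.1% formic acid. Detection used a quadrupole time-of-flight mass spectrometer in positive and negative ionization mode, and data collection spanned 3 months. Retention time was obtained from adduct peaks picked computationally and each checked manually.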

SMILES	RP-LC retention time
CCc1ccccc1S(=O)(=O)N1CCc2nc(-c3ccc(OC)cc3)ncc2C1	1150 s
COc1ccccc1C1=NN(C(C)=O)C(C)(c2cccc(OC(C)=O)c2)O1 (centres undefined)	852 s
CN1c2ccccc2C(=O)NC12CCN(C(=O)NCc1ccc(F)cc1)CC2	724 s
CC(C)(C)C(=O)N1CCCC(c2ccnc(-c3cccc(F)c3)n2)C1 (centres undefined)	1130 s
CC#CCn1c(N2CCC[C@@H](N)C2)nc2c1c(=O)n(Cc1nc(C)c3ccccc3n1)c(=O)n2C	670 s
CCN(CC)C(C(=O)NC1CCCC1)c1cc2c(cc1[N+](=O)[O-])OCO2 (centres undefined)	586 s
CCOC(=O)C1=C(CN2CCN(C)CC2)NC(=O)NC1c1ccc(OC(C)C)cc1 (centres undefined)	636 s
Nc1ccccc1-c1nc2ccncc2[nH]1	708 s
CCOC(=O)C(=O)N1CCN(c2ncnc3c2nnn3C)CC1	643 s
CN(C1CCCCC1)S(=O)(=O)c1ccc(NC(=O)c2ccco2)cc1	883 s
COc1ccc(OCc2noc(CNC(=O)C3CC(=O)N(c4ccccc4)C3)n2)cc1 (centres undefined)	736 s
O=C(NC1CCN(C(=O)N2C[C@H]3C[C@H](C2)[C@H]2CCCC(=O)N2C3)CC1)c1ccc2ccccc2n1	714 s
CCC(=O)N(CC(=O)N1CCc2sccc2C1COc1ccccc1OC)C(C)C (centres undefined)	855 s
Cc1ccc(S(=O)(=O)Nc2ccc(-c3cn4ccccc4n3)cc2)cc1	628 s
COCCC(=O)Nc1c(-c2ccccc2)nc2sc(N3CCCCC3)nn12	751 s
CCN(CC)c1ncnc2c1cnn2CC(=O)N1CCN(c2ccccn2)CC1	549 s
O=C(NC1CCCCCCC1)C1CCN(C(=O)c2ncn3c2COC(c2ccccc2)C3)CC1 (centres undefined)	885 s
CN1C(=O)C(C)(C)COc2cc(NC(=O)CCSc3ccccc3)ccc21	882 s
CC1CCN(CC2CCN(S(=O)(=O)c3cccc(Cl)c3)CC2)CC1	691 s
Cc1cc2c(cc1CNC(=O)Cn1cc(C(=O)c3ccco3)c3ccccc31)OCCCO2	837 s
Cc1cc2c(cc1S(=O)(=O)N1CCCC1C(=O)NCc1ccc(Cl)cc1)OCC(=O)N2 (centres undefined)	806 s
NC(=O)[C@H](Cc1ccccc1)NC(=O)[C@H](Cc1c[nH]c2ccccc12)NC(=O)[C@@H]1CCCN1C(=O)[C@@H](N)Cc1ccc(O)cc1	680 s

SMILES	RP-LC retention time
CC1CCN(CCNC(=O)c2nc(CCS(=O)(=O)c3ccccc3)no2)CC1	635 s
COc1ccc(C(=O)N2CCC(c3cc(N)on3)CC2)cc1F	659 s
CCCNC(=O)c1cc(N2CCCC2)n2nccc2n1	792 s
Cc1ccc(-c2ccc(-n3nc(C)c(S(=O)(=O)N4CCN(C(C)C)CC4)c3C)nn2)cc1C	785 s
CN1C(=O)c2cc(C(=O)N3CCOCC3)nn2CC1(C)C(=O)NCc1ccc(F)cc1 (centres undefined)	644 s
CCn1c(=O)c2ccccc2n(Cc2nc(-c3cc(OC)c(OC)c(OC)c3)no2)c1=O	936 s
NC(=O)c1ccccc1NC(=O)C1CN(c2nc3c(F)cccc3s2)C1	706 s
CC(=O)Nc1ccc2c(c1)CN(C(=O)c1c(F)cccc1Cl)C(C(=O)N(C)C)C2 (centres undefined)	900 s
Cc1oc(-c2[nH]ncc2C(=O)N(C)C)cc1S(=O)(=O)N1CCC(C)CC1	710 s
CCc1nc(-c2csc(S(=O)(=O)N3CCC(C(=O)NCc4ccccc4)CC3)c2)no1	702 s
CC1CCCCN1CCCNC(=O)C1CCCN(c2ncnc3c2nc2n3CCCCC2)C1 (centres undefined)	589 s
CCN1CCCn2cc(S(=O)(=O)Nc3cc(C)cc(C)c3)cc2C1=O	768 s
COc1ccc(N2CC(C(=O)N3CCN(c4ccccn4)CC3)CC2=O)cc1 (centres undefined)	582 s
Cn1c(=O)c(=O)n(C)c2cc(N3CCCCC3)c(NC(=O)CN3CCCC3)cc21	599 s
CCC1Oc2ccc(S(=O)(=O)N3CCC(C(=O)Nc4cc(Cl)ccc4C)CC3)cc2NC1=O (centres undefined)	948 s
COc1cccc(-c2[nH]ncc2CN2C[C@@H]3CCN(S(C)(=O)=O)C[C@]3(CF)C2)c1	599 s
CC(C)NC(=O)C1CC(=O)N(CCc2c[nH]c3ccc(Cl)cc23)C1 (centres undefined)	731 s
O=C(c1cn(-c2ccc(S(=O)(=O)N3CCOCC3)cc2)cn1)N1CCN(c2ncccn2)CC1	666 s
O=C(Nc1ccc(-n2cnc(C(=O)N3CCc4ccccc4C3)c2)nc1)C1CC1	733 s
Cc1cc(N2CCN(c3ccccn3)CC2)n2nc(C(F)(F)F)nc2n1	604 s
CCCN(CC1CCOC1)C(=O)c1ccc(F)c(Cl)c1 (centres undefined)	842 s

Now from value to compound:

RP-LC retention time	SMILES
942 s	Cc1ccc2oc(C(=O)Nc3nccs3)c(C)c2c1
1090 s	COc1cccc(NC(=O)Cn2c(C)nc3c(sc4nc(-c5ccccc5)ccc43)c2=O)c1
912 s	Cc1nc(-c2ccc(N3CCN(C(=O)c4ccc(Br)o4)CC3)cc2)no1
1110 s	COc1ccc(OCc2nc(-c3ccc4c(c3)oc(=O)n4C(C)C)no2)cc1
1150 s	CCn1c(C(=O)NCCc2c[nH]c3ccccc23)cc2c(-c3cccs3)nn(-c3ccccc3)c21
1000 s	Cc1occc1-c1nnc2sc(COc3ccc(Cl)cc3)nn12
797 s	CCOC(=O)COc1cc(-c2ccccc2)nc2ccc(NC(=O)Cc3cccs3)cc12
641 s	CC(=O)Nc1ccc(C(=O)N2CCN(c3cc(-c4cccs4)[nH]n3)CC2)cc1
1040 s	CCn1c(C)c(C(=O)C(C)N(C(=O)c2ccc(C)cc2)C2CC2)c(C)c1C(=O)OC (centres undefined)
845 s	Cc1cc(C(=O)Nc2cnc(N3CCCCC3)nc2)no1
707 s	CCOc1cc(=O)n2c(c1C(=O)NCc1ccc3c(c1)OCO3)CCCC2
870 s	Cc1cccc(CN2CCCn3nc(C(=O)NCCc4ccco4)cc3C2=O)c1
620 s	Cc1ccc(Cn2cc(-c3ccncc3)cc2C(=O)NC(C)c2ccccn2)cc1 (centres undefined)
944 s	CCn1cc(C(=O)Nc2cc(C)cc(C)c2)c(S(=O)(=O)N2CCSCC2)n1
884 s	Cc1ccc(NC(=O)Cn2nc(N3CCOCC3)c3ccccc3c2=O)c(Br)c1
766 s	COc1ccc(NC(=O)Cn2c(=O)n(-c3ccccc3)c(=O)c3c2cc(C)n3C)cc1
1100 s	Cc1cccc(N(C(=O)Nc2ccccc2C)C2=NCCC2)c1
833 s	CCOC(=O)C1CCN(c2nc(=O)n(CC(=O)Nc3cccc(C)c3)c3ccccc23)CC1
629 s	CCn1cc(C)c(C(=O)O)c1CC(=O)NCCN1CCc2ccccc2C1
879 s	O=C(Nc1ccc2c(c1)CCCN2C(=O)C1CC1)c1cc(Br)ccc1Cl
908 s	Cc1sc(-c2nc(C(C)C)cs2)cc1S(=O)(=O)N1CCN(c2ccccn2)CC1
